Reference: ChEMBL document CHEMBL1133820, “Total synthesis and antifungal activity of 9-methoxystrobilurin L as the originally proposed 1,4-benzodioxan structure” (2001)
Activity calls are given as the source filed them. The rule behind the calls is not given here.

How the values were obtained:
Aspergillus fumigatus [1] = test: Antifungal activity against Aspergillus fumigatus determined as diameter of inhibition zone at a concentration of 10 ug/disk; format: functional
Aspergillus fumigatus [2] = test: Antifungal activity against Aspergillus fumigatus determined as diameter of inhibition zone at a concentration of 1 ug/disk; Slightly effective; format: functional, organism-based
Candida albicans [3] = test: Antifungal activity against Candida albicans determined as diameter of inhibition zone at a concentration of 0.1 ug/disk; Not effective; format: functional, organism-based
Candida albicans [4] = test: Antifungal activity against Candida albicans determined as diameter of inhibition zone at a concentration of 1 ug/disk; Slightly effective; format: functional, organism-based
Candida albicans [5] = test: Antifungal activity against Candida albicans determined as diameter of inhibition zone at a concentration of 10 ug/disk; format: functional
Fusarium solani [6] = test: Antifungal activity against Fusarium solani determined as diameter of inhibition zone at a concentration of 0.1 ug/disk; Not effective; format: functional, organism-based
Fusarium solani [7] = test: Antifungal activity against Fusarium solani determined as diameter of inhibition zone at a concentration of 1 ug/disk; Not effective; format: functional, organism-based
Fusarium solani [8] = test: Antifungal activity against Fusarium solani determined as diameter of inhibition zone at a concentration of 10 ug/disk; Not effective; format: functional, organism-based
Penicillium citrinum [9] = test: Antifungal activity against Penicillium citrium determined as diameter of inhibition zone at a concentration of 0.1 ug/disk; Not effective; format: functional, organism-based
Penicillium citrinum [10] = test: Antifungal activity against Penicillium citrium determined as diameter of inhibition zone at a concentration of 1 ug/disk; Not effective; format: functional, organism-based
Penicillium citrinum [11] = test: Antifungal activity against Penicillium citrium determined as diameter of inhibition zone at a concentration of 10 ug/disk; Not effective; format: functional, organism-based
Saccharomyces cerevisiae [12] = test: Antifungal activity against Saccharomyces cerevisiae determined as diameter of inhibition zone at a concentration of 0.1 ug/disk; Not effective; format: functional, organism-based
Saccharomyces cerevisiae [13] = test: Antifungal activity against Saccharomyces cerevisiae determined as diameter of inhibition zone at a concentration of 1 ug/disk; Slightly effective; format: functional, organism-based
Saccharomyces cerevisiae [14] = test: Antifungal activity against Saccharomyces cerevisiae determined as diameter of inhibition zone at a concentration of 10 ug/disk; format: functional
Aspergillus fumigatus [15] = test: Antifungal activity against Aspergillus fumigatus determined as diameter of inhibition zone at a concentration of 0.1 ug/disk; Slightly effective; format: functional, organism-based
Saccharomyces cerevisiae [16] = test: Antifungal activity against Saccharomyces cerevisiae determined as diameter of inhibition zone at a concentration of 0.1 ug/disk; Slightly effective; format: functional, organism-based
Aspergillus fumigatus [17] = test: Antifungal activity against Aspergillus fumigatus determined as diameter of inhibition zone at a concentration of 10 ug/disk (expt 2); format: functional, organism-based
Candida albicans [18] = test: Antifungal activity against Candida albicans determined as diameter of inhibition zone at a concentration of 10 ug/disk (expt 1); format: functional, organism-based
Penicillium citrinum [19] = test: Antifungal activity against Penicillium citrium determined as diameter of inhibition zone at a concentration of 10 ug/disk (expt 1); format: functional, organism-based
Penicillium citrinum [20] = test: Antifungal activity against Penicillium citrium determined as diameter of inhibition zone at a concentration of 10 ug/disk (expt 2); Not effective; format: functional, organism-based
Saccharomyces cerevisiae [21] = test: Antifungal activity against Saccharomyces cerevisiae determined as diameter of inhibition zone at a concentration of 10 ug/disk (expt 1); format: functional, organism-based
Saccharomyces cerevisiae [22] = test: Antifungal activity against Saccharomyces cerevisiae determined as diameter of inhibition zone at a concentration of 10 ug/disk (expt 2); format: functional, organism-based
Aspergillus fumigatus [23] = test: Antifungal activity against Aspergillus fumigatus determined as diameter of inhibition zone at a concentration of 10 ug/disk (expt 1); format: functional, organism-based
Candida albicans [24] = test: Antifungal activity against Candida albicans determined as diameter of inhibition zone at a concentration of 10 ug/disk (expt 2); format: functional, organism-based
Candida albicans [25] = test: Antifungal activity against Candida albicans determined as diameter of inhibition zone at a concentration of 1 ug/disk; Not effective; format: functional, organism-based
Saccharomyces cerevisiae [26] = test: Antifungal activity against Saccharomyces cerevisiae determined as diameter of inhibition zone at a concentration of 1 ug/disk; Not effective; format: functional, organism-based

Molecule: C=CC(C)(C)OC(C)(C)[C@H]1COc2ccc(/C=C/C(OC)=C(C)\C(=C/OC)C(=O)OC)cc2O1
- Diameter of inhibition zone (Aspergillus fumigatus [1]): 8 mm
- Diameter of inhibition zone (Aspergillus fumigatus [2]): Slightly effective
- Diameter of inhibition zone (Candida albicans [3]): inactive
- Diameter of inhibition zone (Candida albicans [4]): Slightly effective
- Diameter of inhibition zone (Candida albicans [5]): 8 mm
- Diameter of inhibition zone (Fusarium solani [6]): inactive
- Diameter of inhibition zone (Fusarium solani [7]): inactive
- Diameter of inhibition zone (Fusarium solani [8]): inactive
- Diameter of inhibition zone (Penicillium citrinum [9]): inactive
- Diameter of inhibition zone (Penicillium citrinum [10]): inactive
- Diameter of inhibition zone (Penicillium citrinum [11]): inactive
- Diameter of inhibition zone (Saccharomyces cerevisiae [12]): inactive
- Diameter of inhibition zone (Saccharomyces cerevisiae [13]): Slightly effective
- Diameter of inhibition zone (Saccharomyces cerevisiae [14]): 8 mm
- Diameter of inhibition zone (Aspergillus fumigatus [15]): Slightly effective

Molecule: C=CC(C)(C)O[C@H]1COc2ccc(/C=C/C(OC)=C(C)\C(=C\OC)C(=O)OC)cc2OC1(C)C
- Diameter of inhibition zone (Candida albicans [3]): inactive
- Diameter of inhibition zone (Fusarium solani [6]): inactive
- Diameter of inhibition zone (Penicillium citrinum [9]): inactive
- Diameter of inhibition zone (Penicillium citrinum [10]): inactive
- Diameter of inhibition zone (Saccharomyces cerevisiae [16]): Slightly effective
- Diameter of inhibition zone (Aspergillus fumigatus [15]): Slightly effective

Molecule: NYSTATIN
- Diameter of inhibition zone (Aspergillus fumigatus [17]): 8 mm
- Diameter of inhibition zone (Candida albicans [18]): 16 mm
- Diameter of inhibition zone (Penicillium citrinum [19]): 10 mm
- Diameter of inhibition zone (Penicillium citrinum [20]): inactive
- Diameter of inhibition zone (Saccharomyces cerevisiae [21]): 17 mm
- Diameter of inhibition zone (Saccharomyces cerevisiae [22]): 8 mm
- Diameter of inhibition zone (Aspergillus fumigatus [23]): 12 mm
- Diameter of inhibition zone (Candida albicans [24]): 10 mm

Molecule: C=CC(C)(C)OC(C)(C)[C@@H]1COc2ccc(/C=C/C(OC)=C(C)\C(=C/OC)C(=O)OC)cc2O1
- Diameter of inhibition zone (Candida albicans [3]): inactive
- Diameter of inhibition zone (Candida albicans [25]): inactive
- Diameter of inhibition zone (Fusarium solani [6]): inactive
- Diameter of inhibition zone (Fusarium solani [7]): inactive
- Diameter of inhibition zone (Penicillium citrinum [9]): inactive
- Diameter of inhibition zone (Penicillium citrinum [10]): inactive
- Diameter of inhibition zone (Penicillium citrinum [11]): inactive
- Diameter of inhibition zone (Saccharomyces cerevisiae [12]): inactive
- Diameter of inhibition zone (Aspergillus fumigatus [15]): Slightly effective
- Diameter of inhibition zone (Saccharomyces cerevisiae [26]): inactive
